The target of the assay is T1, P-selectin (Homo sapiens, UniProt P16109).
T1 sequence (P16109 whole entry): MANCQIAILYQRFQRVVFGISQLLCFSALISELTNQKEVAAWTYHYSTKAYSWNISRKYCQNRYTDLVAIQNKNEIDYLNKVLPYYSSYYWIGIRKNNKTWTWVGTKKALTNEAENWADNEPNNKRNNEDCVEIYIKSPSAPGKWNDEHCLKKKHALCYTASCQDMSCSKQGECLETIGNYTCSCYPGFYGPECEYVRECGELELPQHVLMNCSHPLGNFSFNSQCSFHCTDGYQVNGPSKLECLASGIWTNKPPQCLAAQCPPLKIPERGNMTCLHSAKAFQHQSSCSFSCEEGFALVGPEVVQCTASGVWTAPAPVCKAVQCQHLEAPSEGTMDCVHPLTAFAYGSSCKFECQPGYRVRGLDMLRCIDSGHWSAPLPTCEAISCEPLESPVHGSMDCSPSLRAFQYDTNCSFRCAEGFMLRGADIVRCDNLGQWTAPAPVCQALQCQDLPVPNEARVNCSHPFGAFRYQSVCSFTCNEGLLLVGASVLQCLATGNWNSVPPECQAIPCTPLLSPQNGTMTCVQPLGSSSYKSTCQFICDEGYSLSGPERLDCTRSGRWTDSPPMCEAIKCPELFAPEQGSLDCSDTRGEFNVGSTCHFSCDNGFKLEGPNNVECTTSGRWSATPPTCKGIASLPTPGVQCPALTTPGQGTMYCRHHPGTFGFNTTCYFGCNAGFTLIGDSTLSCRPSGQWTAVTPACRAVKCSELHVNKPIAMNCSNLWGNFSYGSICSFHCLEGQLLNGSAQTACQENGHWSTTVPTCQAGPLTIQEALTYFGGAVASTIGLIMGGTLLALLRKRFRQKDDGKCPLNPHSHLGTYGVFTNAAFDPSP
The experiment in a line: Inhibition of P-Selectin by Biacore assay. A general note: Surface plasmon resonance follows binding to a sensor surface in real time, without labels.
On to `O=C(O)c1c(O)c(-c2ccccc2)nc2c3c(ccc12)CCCC3`, for which the IC50 (usually the concentration at which inhibition is half-maximal) was 550 µM.

Turning to `NC(=O)c1ccc(Cc2nc3c4c(ccc3c(C(=O)O)c2O)CCCC4)cc1`, 1250 µM corresponded to half-maximal inhibition (IC50).

Molecule `O=C(O)c1c(O)c(Cc2c[nH]c3ccc(Br)cc23)nc2c3c(ccc12)CCCC3` came in with an IC50 of 175 µM.

As for `O=C(O)c1c(O)c(Cc2ccc(OC(F)(F)F)cc2)nc2c3c(ccc12)CCCC3`, the IC50 is 610 µM.

Molecule `O=C(O)c1c(O)c(Cc2cccs2)nc2c3c(ccc12)CCCC3` returned a 50% inhibitory concentration (IC50) of 413 µM.

As for `O=C(O)c1c(O)c(Cc2ccc(Cl)cc2)nc2c(-c3ccoc3)cccc12`, the IC50 worked out at 150 µM.

As for `O=C(O)c1c(OCc2ccccc2)c(Cc2ccc(Cl)cc2)nc2c3c(ccc12)CCCC3`, the 50% inhibitory concentration (IC50) was 390 µM.

The molecule `O=C(O)c1c(O)c(Cc2ccc(Cl)cc2)nc2ccc(Br)cc12` had an IC50 of 650 µM.

`CC(=O)Oc1c(Cc2ccc(Cl)cc2)nc2c3c(ccc2c1C(=O)O)CCCC3` displayed an IC50 of 545 µM.

On to `O=C(O)c1c(O)c(Cc2ccc(Cl)cc2)nc2c(Cl)cccc12`, for which the half-maximal inhibitory concentration (IC50) is 715 µM.

Molecule `O=C(O)c1c(O)c(Cc2ccc(Cl)cc2)nc2c(OC(F)(F)F)cccc12` came in with an IC50 of 550 µM.

As to `COC(=O)Oc1c(Cc2ccc(Cl)cc2)nc2c3c(ccc2c1C(=O)O)CCCC3`, half-maximal inhibition (IC50) was put at 400 µM.

For the molecule `CC(C)S(=O)(=O)N1CCc2ccc3c(C(=O)O)c(O)c(Cc4ccc(Cl)cc4)nc3c2C1`, the IC50 came out at 500 µM.

Consider `O=C(O)c1c(O)c(Cc2ccc(Cl)cc2)nc2c(C(F)(F)F)cccc12`, for which inhibition was half-maximal at 325 µM (IC50).

In the case of `CC(C)c1cccc2c(C(=O)O)c(O)c(Cc3ccc(Cl)cc3)nc12`, half-maximal inhibition (IC50) required 225 µM.

As for `CC(C)COC(=O)Oc1c(Cc2ccc(Cl)cc2)nc2c3c(ccc2c1C(=O)O)CCCC3`, the IC50 is 250 µM.

`O=C(O)c1c(O)c(Cc2ccc(Cl)cc2)nc2c(-c3ccccc3)cccc12` yielded a half-maximal inhibitory concentration (IC50) of 200 µM.

`CS(=O)(=O)N1CCc2ccc3c(C(=O)O)c(O)c(Cc4ccc(Cl)cc4)nc3c2C1` displayed a 50% inhibitory concentration (IC50) of 625 µM.

`O=C(O)c1c(O)c(Cc2ccsc2)nc2c3c(ccc12)CCCC3` gave a half-inhibitory concentration (IC50) of 475 µM.

Take `O=C(O)c1c(O)c(-c2ccccc2)nc2ccccc12` [OXYCINCHOPHEN]: half-maximal inhibition (IC50) was put at 6500 µM.

In turn, `Cc1[nH]c2ccccc2c1Cc1nc2c3c(ccc2c(C(=O)O)c1O)CCCC3` gave a 50% inhibitory concentration (IC50) of 270 µM.

For the molecule `COc1ccc2[nH]cc(Cc3nc4c5c(ccc4c(C(=O)O)c3O)CCCC5)c2c1`, the IC50 turned out to be 400 µM.

The molecule `CC(C)c1cccc2c(C(=O)O)c(O)c(Cc3c[nH]c4ccccc34)nc12` gave an IC50 of 415 µM.

`O=C(O)c1c(O)c(Cc2csc3ccccc23)nc2c3c(ccc12)CCCC3` had an IC50 of 100 µM.

`O=C(O)c1c(O)c(Cc2ccc(Cl)cc2)nc2c(-c3ccsc3)cccc12`: half-maximal inhibition (IC50) required 225 µM.

`O=C(Oc1c(Cc2ccc(Cl)cc2)nc2c3c(ccc2c1C(=O)O)CCCC3)c1cccs1` returned an IC50 of 175 µM.

The molecule `O=C(O)c1c(O)c(Cc2ccc(Cl)cc2)nc2cc(Cl)ccc12` had an IC50 of 900 µM.

`CCC(C)c1cccc2c(C(=O)O)c(O)c(Cc3ccc(Cl)cc3)nc12` (configuration not stated): half-maximal inhibition (IC50) required 300 µM.

The molecule `O=C(O)c1c(O)c(Cc2ccccc2)nc2c3c(ccc12)CCCC3` registered an IC50 of 413 µM.

`O=C(O)c1c(O)c(Nc2ccc(Cl)cc2)nc2c(C(F)(F)F)cccc12` displayed a half-maximal inhibitory concentration (IC50) of 125 µM.

In the case of `Cc1ccc2[nH]cc(Cc3nc4c5c(ccc4c(C(=O)O)c3O)CCCC5)c2c1`, half-maximal inhibition (IC50) required 200 µM.

For `O=C(O)c1c(O)c(Cc2c[nH]c3ccccc23)nc2c(-c3ccsc3)cccc12`, the concentration for half-maximal inhibition (IC50) worked out at 380 µM.

Consider `Cc1ccc(-c2nc3c4c(ccc3c(C(=O)O)c2O)CCCC4)s1`, for which the IC50 is 200 µM.

As for `O=C(O)c1c(O)c(-c2c[nH]c3ccccc23)nc2c3c(ccc12)CCCC3`, the concentration for half-maximal inhibition (IC50) was 225 µM.

Molecule `O=C(O)c1c(O)c(Cc2ccc(Cl)cc2)nc2c3c(ccc12)CCC3` registered an IC50 of 580 µM.

Molecule `O=C(Oc1c(Cc2ccc(Cl)cc2)nc2c3c(ccc2c1C(=O)O)CCCC3)c1ccccc1` yielded an IC50 of 190 µM.

In turn, `O=C(O)c1c(O)c(Cc2ccc(Cl)cc2)nc2c(Br)cccc12` came in with a half-inhibitory concentration (IC50) of 425 µM.

Values taken from ChEMBL document CHEMBL1139221, “2-(4-Chlorobenzyl)-3-hydroxy-7,8,9,10-tetrahydrobenzo[H]quinoline-4-carboxylic acid (PSI-697): identification of a clinical candidate from the quinoline salicylic acid series of P-selectin antagonists” (J Med Chem, 2007).
